According to patent publication US11191820B2, “Method for inducing early T memory response with short peptides anti-tumor vaccine” (OSE IMMUNOTHERAPEUTICS, priority 2015, dated 2021):

How the values were obtained:
Type in all cases: in vivo, human
central memory T cells [1] = assay: Cultured IFN-γ ELISPOT after 10-day in vitro stimulation of PBMC, phase 1/2 colon cancer trial of OSE-2101; design: key to net SFC of vaccine positive CTL responses: —, indicates SFC response did not meet criteria and vaccine response was negative; details: for Mean SFC: 10 colon patients
Description: (§1) Clinical study design. Both trials were designed as phase 1/2, open label, multi-center, single dose, multiple administration studies to evaluate the safety and immunogenicity of the OSE-2101 immunotherapy. Patients were treated with 1 ml OSE-2101 every 3 weeks for a total of six doses. Each dose was administered subcutaneously in the same vicinity in the deltoid or upper thigh region, or at a contralateral site if local side-effects were observed. The study duration for each completed patient was 18 weeks. Clinical responses or patient survival were not measured in either phase 1/2 studies.
(§2) Clinical sample processing. Blood or leukapheresis product was obtained from patients at the pre-treatment, the Week 9 and Week 18 time points, 3 weeks after the third and sixth dose of OSE-2101 respectively. Peripheral blood mononuclear cells (PBMC) were isolated from samples within 24 hours of collection using a FICOLL-PAQUE density gradient and cryopreserved in containers designed to ensure optimal freezing (Mr. Frosty, Nalgene). For use, cells were rapidly thawed at 37° C. then transferred to human AB serum-containing medium for work-up.
(§3) Measurement of central T memory cells responses and T effector memory cells. The CTL responses in 16 total patients (10 colon and six NSCLC) were monitored for CTL responses against each epitope and against the wild-type epitope of epitopes analogs. For each patient, the pre-treatment, Week 9 and Week 18 time points were batch-tested in the same experiment to allow pre- versus post-treatment response comparison in the same experiment. Central T memory cells responses were measured using an IFN-γ enzyme-linked immunospot (cultured ELISPOT) assay following in vitro stimulation of PBMC for 10 days with each vaccine epitope. Briefly, PBMC from each time point were stimulated on day 0 with 10 μg/ml of each epitope individually in replicate in 48-well culture plates (2×10^6 PBMC/well). All cultures were fed with rIL-2 (Endogen, Woburn, Mass.; 10 U/ml final concentration) on days 1, 4 and 7. Ten days after initiation of culture, cells were harvested and tested for activity against specific vaccine peptides and corresponding wild-type peptides of vaccine analogs in the T memory ELISPOT assay. Cells were tested in Millipore IP 96-well plates pre-coated with mouse anti-human IFN-γ antibody (Mabtech USA, Cincinnati, Ohio). Five×10^4 cells and 1.25×10^4 cells from each culture were plated in triplicate wells together with 10^5 irradiated autologous PBMC and 10 μg/ml peptide. As a control, CTL were also tested against an irrelevant HLA-A2.1-binding HBV peptide. After 20 hours incubation, T memory ELISPOT plates were developed by performing sequential incubations with biotinylated anti-human IFN-γ antibody (Mabtech USA), Avidin-Peroxidase Complex (APC, Vector Laboratories, Burlingame, Calif.), and 3-amino-9-ethyl carbazole (AEC) substrate (Sigma Aldrich, St. Louis, Mo.). Spot-forming cells (SFC) were enumerated using a computer-assisted image analysis system (Zeiss KS ELISPOT Reader, Carl Zeiss MicroImaging, Thornwood, N.J.). Data is reported as the net SFC per 5×10^4 cells after subtracting spots induced with the irrelevant HBV peptide.

central memory T cells [2] = assay: Central memory T cell cultured ELISPOT, phase 2 trial in advanced NSCLC
Description: CTL Immune responses measured though cultured Elispot. The immunogenicity was measured in Phase 2 clinical trial on cryopreserved PBMC from each test sample were thawed in 5% human culture medium (RPMI-1640 medium with 25 mM HEPES, supplemented with 5% human AB serum, 4 mM L-glutamine, 0.5 mM sodium pyruvate, 0.1 mM MEM non-essential amino acids, 100 μg/ml streptomycin, and 100 U/ml penicillin) containing 30 μg/ml DNAase. After centrifugation for 5 minutes at 1200 rpm, the cell pellets were resuspended in 5% human culture medium and washed 2 times. For the central Memory T cell cultured ELISPOT assay, 2×10^6/ml PBMC were placed in replicate wells in a 48-well plates and stimulated for 10 days with 10 μg/ml of each peptide. As a positive control, PBMC were also stimulated with a pool of recall viral peptides. Human rIL2 (10 U/ml) was added to the peptide-stimulated cultures at day 1, day 4 and day 7. After 10 days the stimulated cells were harvested and plated at a concentration of 5×10^4/well. Assay wells also received irradiated autologous PBMC (1×10^5/well) and 10 μg/ml peptide, either the vaccine peptide, irrelevant peptide or positive control peptides. Cells stimulated in vitro with each analog epitope were also tested against the corresponding wild-type epitope.
Data analysis and acceptance criteria. Mean and standard deviation (SD) of spots in replicate wells were calculated in all assays by transferring raw ELISPOT data from each experiment to an Excel-based computer program. Positive vaccine-induced T-cell responses were determined according to the criteria described below.
Acceptance Criteria for peptide-Induced specific T-cell response through central memory T cells: The positive criteria for CTL responses used in the phase 2 trial was identical to the criteria in the phase 1/2 trials which was established prospectively after analyzing the variability of pre-treatment responses in patients against each vaccine epitope and the irrelevant HBV control epitope. A positive peptide-induced CTL/T memory response to a given epitope met all of the following conditions: 1) was greater than 5 SFC above the irrelevant epitope response, 2) was greater than the mean SFC of the irrelevant epitope response, plus 2 SD, and 3) was two-fold greater than the SFC response in the pre-vaccination sample from the same patient, plus 2 SD. The inclusion of “plus two standard deviations” was used to accommodate the assay variability and served to increase the criteria stringency.

central memory T cells [3] = assay: Cultured IFN-γ ELISPOT after 10-day in vitro stimulation of PBMC, phase 1/2 NSCLC trial of OSE-2101; design: key to net SFC of vaccine positive CTL responses: —, indicates SFC response did not meet criteria and vaccine response was negative; details: for No. Positive Responses: 6 NSCLC patients
Description: as §1, §2, §3

Sequence: KVAEIVHFL [MAGE3.112I5 A]
- Mean SFC (central memory T cells [1]; Week 9): 49.2 SFC per 50,000 cells
- Mean SFC (central memory T cells [1]; Week 18): 77.8 SFC per 50,000 cells
- net SFC of vaccine positive CTL responses (central memory T cells [1]; colon patient 551, Week 9): —
- net SFC of vaccine positive CTL responses (central memory T cells [1]; colon patient 551, Week 18): 8.7 SFC per 50,000 cells
- net SFC of vaccine positive CTL responses (central memory T cells [1]; colon patient 601, Week 9): 27.0 SFC per 50,000 cells
- net SFC of vaccine positive CTL responses (central memory T cells [1]; colon patient 601, Week 18): —
- net SFC of vaccine positive CTL responses (central memory T cells [1]; colon patient 602, Week 9): —
- net SFC of vaccine positive CTL responses (central memory T cells [1]; colon patient 602, Week 18): —
- net SFC of vaccine positive CTL responses (central memory T cells [1]; colon patient 603, Week 9): —
- net SFC of vaccine positive CTL responses (central memory T cells [1]; colon patient 603, Week 18): 16.0 SFC per 50,000 cells
- net SFC of vaccine positive CTL responses (central memory T cells [1]; colon patient 604, Week 9): 60.3 SFC per 50,000 cells
- net SFC of vaccine positive CTL responses (central memory T cells [1]; colon patient 604, Week 18): 268.0 SFC per 50,000 cells
- net SFC of vaccine positive CTL responses (central memory T cells [1]; colon patient 605, Week 9): —
- net SFC of vaccine positive CTL responses (central memory T cells [1]; colon patient 605, Week 18): —
- net SFC of vaccine positive CTL responses (central memory T cells [1]; colon patient 606, Week 9): —
- net SFC of vaccine positive CTL responses (central memory T cells [1]; colon patient 606, Week 18): 18.7 SFC per 50,000 cells
- net SFC of vaccine positive CTL responses (central memory T cells [1]; colon patient 607, Week 9): 60.3 SFC per 50,000 cells
- net SFC of vaccine positive CTL responses (central memory T cells [1]; colon patient 607, Week 18): —
- net SFC of vaccine positive CTL responses (central memory T cells [1]; colon patient 608, Week 9): —
- net SFC of vaccine positive CTL responses (central memory T cells [1]; colon patient 608, Week 18): —
- net SFC of vaccine positive CTL responses (central memory T cells [1]; colon patient 609, Week 9): —
- net SFC of vaccine positive CTL responses (central memory T cells [1]; colon patient 609, Week 18): —
- % of patients with positive CTL/central memory T cell response (central memory T cells [2]; phase 2, month 9): 0%
- patients with positive CTL/central memory T cell response / patients tested (central memory T cells [2]; phase 2, month 9): 0/7
- % of patients with positive CTL/central memory T cell response (central memory T cells [2]; phase 2, month 12): 0%
- patients with positive CTL/central memory T cell response / patients tested (central memory T cells [2]; phase 2, month 12): 0/4
- % of patients with positive CTL/central memory T cell response (central memory T cells [2]; phase 2, week 9): 30%
- patients with positive CTL/central memory T cell response / patients tested (central memory T cells [2]; phase 2, week 9): 10/33
- % of patients with positive CTL/central memory T cell response (central memory T cells [2]; phase 2, week 18): 25%
- patients with positive CTL/central memory T cell response / patients tested (central memory T cells [2]; phase 2, week 18): 8/32
- % of patients with positive CTL/central memory T cell response (central memory T cells [2]; phase 2, week 30): 43%
- patients with positive CTL/central memory T cell response / patients tested (central memory T cells [2]; phase 2, week 30): 10/23
- No. Positive Responses (central memory T cells [3]; Week 9): 0
- No. Positive Responses (central memory T cells [3]; Week 18): 0
- net SFC of vaccine positive CTL responses (central memory T cells [3]; NSCLC patient 201, Week 9): —
- net SFC of vaccine positive CTL responses (central memory T cells [3]; NSCLC patient 201, Week 18): —
- net SFC of vaccine positive CTL responses (central memory T cells [3]; NSCLC patient 502, Week 9): —
- net SFC of vaccine positive CTL responses (central memory T cells [3]; NSCLC patient 502, Week 18): —
- net SFC of vaccine positive CTL responses (central memory T cells [3]; NSCLC patient 504, Week 9): —
- net SFC of vaccine positive CTL responses (central memory T cells [3]; NSCLC patient 504, Week 18): —
- net SFC of vaccine positive CTL responses (central memory T cells [3]; NSCLC patient 505, Week 9): —
- net SFC of vaccine positive CTL responses (central memory T cells [3]; NSCLC patient 505, Week 18): —
- net SFC of vaccine positive CTL responses (central memory T cells [3]; NSCLC patient 532, Week 9): —
- net SFC of vaccine positive CTL responses (central memory T cells [3]; NSCLC patient 532, Week 18): —
- net SFC of vaccine positive CTL responses (central memory T cells [3]; NSCLC patient 651, Week 9): —
- net SFC of vaccine positive CTL responses (central memory T cells [3]; NSCLC patient 651, Week 18): —
